Experimental data taken from PMC7274078, “Brain Endothelial Cells Regulate Glucagon-Like Peptide 1 Entry Into the Brain via a Receptor-Mediated Process” (Frontiers in Physiology, 2020).

How the values were obtained:
protein kinase A (PKA) = assay: PKA activity in brain regions and cerebral microvessels after GLP-1 infusion; type: in vivo, rat
Description: Each rat received a systemic infusion of either saline or GLP-1 (Abcam, Cambridge, United Kingdom) (30 pmol/kg/min) via the jugular vein catheter for 10 min. Plasma samples were then collected and rats sacrificed via anesthetic overdose. Cerebral spinal fluid (CSF) and various brain regions (cerebellum, cortex, hippocampus, hypothalamus, and brain stem) were collected for further assays. Cerebral microvessels were isolated as described ([Austin et al., 2010]). Briefly, brain tissue was disrupted with a razor blade followed by passing through an 18G needle. Vessel fragments were harvested using dextran-gradient centrifugation, then collected on a 20 μm pore filter, washed to remove cell debris, and reconstituted in buffer. This was followed by passing through a 100 μm pore size filter. Brain vessels that can pass through the 100 μm filter were considered as cerebral microvessel and used for protein kinase A (PKA) activity assay. […]
(§1) All plasma and CSF samples collected during the study were frozen immediately and stored at −80°C until further analysis of GLP-1 concentration using a total GLP-1 ELISA kit (Merck Millipore, Billerica, MA, United States) ([Knezovic et al., 2018]). To measure PKA activity in brain tissue, cerebral microvessels, or cultured cells, samples were homogenized and lysed in PKA lysis buffer and activity determined using a Pep Tag® non-radioactive protein kinase assay kit (Promega, Madison, WI, United States) ([Christian et al., 2011]). […]
FIGURE 2 GLP-1 infusion increases PKA activity in various brain regions in both normal and vagotomized rats. […] PKA activities in various brain regions were determined in normal rats (A,B) and vagotomized rats (D,E). […] (B,E), Quantitative analysis (B, n = 7; *p < 0.05 vs. saline infusion, Student’s t test) (E, n = 6; *p < 0.05 vs. saline infusion, Student’s t test).
(§2) Each rat received a systemic infusion of either saline or GLP-1 (30 pmol/kg/min) for 10 min, GLP-1 concentrations in CSF and plasma were determined and cerebral microvessels were isolated. […] (D) Quantitative analysis of PKA activity (n = 6, *p < 0.05, Student’s t test).

DPP4 = conditions: plasma, degradation by DPP4; no reference given; cited from earlier work
Text: GLP-1 receptors are expressed in multiple brain areas in rodents, primates, and humans and they are involved in learning, neuroprotection and regulation of appetite and satiety ([Wei and Mojsov, 1995]; [During et al., 2003]; [Richards et al., 2014]). Global knockout of the GLP-1 receptor in mice impairs synaptic plasticity and memory formation ([Abbas et al., 2009]). […] Indeed, pre-treatment of animals w ...

[1] = GLP-1 concentrations in plasma and CSF (total GLP-1 ELISA); type: in vivo; conditions: rat, systemic infusion 30 pmol/kg/min for 10 min, n = 4
Description: Each rat received a systemic infusion of either saline or GLP-1 (Abcam, Cambridge, United Kingdom) (30 pmol/kg/min) via the jugular vein catheter for 10 min. Plasma samples were then collected and rats sacrificed via anesthetic overdose. Cerebral spinal fluid (CSF) and various brain regions (cerebellum, cortex, hippocampus, hypothalamus, and brain stem) were collected for further assays. Cerebral microvessels were isolated as described ([Austin et al., 2010]). Briefly, brain tissue was disrupted with a razor blade followed by passing through an 18G needle. […]
as §1, §2

[2] = Microvascular perfusion in hippocampus and skeletal muscle (contrast-enhanced ultrasound), with blood glucose and MAP; type: in vivo; conditions: rat
Description: After a 30–45 min baseline period to ensure hemodynamic stability and a stable level of anesthesia, baseline microvascular blood volume (MBV) and microvascular flow velocity (MFV), in the hippocampus and skeletal muscle were determined using contrast-enhanced ultrasound (CEU), as described previously ([Chai et al., 2010]; [Fu et al., 2013], [2017]). In brief, microbubbles (Definity; Lantheus Medical Imaging) were diluted with normal saline (1:10 vol:vol) and infused intravenously at a rate of 0.8 mL/h. Once the systemic microbubble concentrations reached steady state (∼6 min), high-power pulse-inversion ultrasound (HDI-5000; Philips Ultrasound) was used to image the microbubble signals in the hippocampus and the proximal adductor muscle group (adductor magnus and semimembranosus). Intermittent imaging was performed at pulsing intervals ranging from 0.5 to 10 s. At least three images were acquired at each pulsing interval, and the images obtained at 0.5 s were used as background. Pulsing interval vs. background-subtracted video intensity was fitted to the function y = A (1 − e^−βt, with y being video intensity at pulsing interval t. A as the plateau video intensity measures MBV and β represents the rate of microvascular filling (i.e., MFV). Microvascular blood flow (MBF) was calculated by multiplying MBV and MFV. All CEU images were analyzed using the QLAB software (Philips Medical Systems, Andover, MA, United States).
After the baseline hippocampal and muscle microvascular parameters were obtained, rats then received a continuous intravenous infusion of either saline or GLP-1 (30 pmol/kg/min) for 120 min. Hippocampal microvascular parameters (MBV, MFV, and MBF) were again determined every 30 min and muscle microvascular parameters at 120 min using CEU. Throughout the study, mean arterial blood pressure (MAP) was monitored via a sensor connected to the carotid catheter (Harvard Apparatus, Holliston, MA, United States, and AD Instruments, Inc., Colorado Springs, CO, United States). Inactin was infused at a variable rate to maintain steady levels of anesthesia and blood pressure throughout the study. Carotid arterial blood glucose concentrations were determined every 30 min using a Contour Next glucometer (BAYER). At the end of each study the rat was euthanized by an overdose of inactin.
FIGURE 8 GLP-1 infusion increases muscle but not […] microvascular perfusion. Each rat received a systemic infusion of saline or GLP-1 at 30 pmol/kg/min for 120 min and MBV, MFV and MBF were determined using contrast-enhanced ultrasound in both […] (A,B,C) and muscle (D,E,F) (n = 6, *p < 0.05, vs. control, Student’s t test).

[3] = 30 pmol/kg/min i.v. for 120 min, contrast-enhanced ultrasound, n = 6
[4] = 30 pmol/kg/min i.v. for 120 min, n = 6
[5] = 30 pmol/kg/min i.v., at 120 min, contrast-enhanced ultrasound, n = 6, p < 0.05

- PKA activity in brain microvessels (protein kinase A (PKA); isolated cerebral microvessels, rat, GLP-1 30 pmol/kg/min for 10 min, n = 6, p < 0.05): acutely increased
- PKA activities in all brain regions (protein kinase A (PKA); normal rats, GLP-1 30 pmol/kg/min infusion for 10 min vs saline, n = 7, p < 0.05): significantly increased
- PKA activity in various brain regions (protein kinase A (PKA); sham-operated and sub-diaphragmatic vagotomized rats, GLP-1 30 pmol/kg/min for 10 min, n = 6): rapid and robust increase
Substance: Glucagon-like peptide 1 [GLP-1]
- half-life (DPP4): ~2 min
- levels of GLP-1 in CSF [1]: remained undetectable
- plasma GLP-1 concentrations [1]: markedly increased
- hippocampal MBF [2, 3]: did not alter
- hippocampal MBV [2, 3]: did not alter
- hippocampal MFV [2, 3]: did not alter
- Blood glucose during the study [2, 4]: remained stable
- MAP during the study [2, 4]: remained stable
- MFV in muscle ([2]; 30 pmol/kg/min i.v., at 120 min, contrast-enhanced ultrasound, n = 6): without affecting
- MBF in muscle [2, 5]: markedly increase
- MBV in muscle [2, 5]: markedly increase
